# Entries after “also recorded” stand apart in the source; their conditions may differ. Structures can show the parent of a compound that is named as a salt. Where two headings read alike, the source gives them in different places.
# Target: T1, His6-AspH315–758 (human aspartate/asparagine-β-hydroxylase, AspH) (Homo sapiens, UniProt Q12797)
# T1 construct: N-Terminally His6-tagged human AspH315–758 (His6-AspH315–758) was produced in E. coli BL21 (DE3) cells; made in house; host or cells: E. coli BL21 (DE3), pET-28a(+) vector
# T1 sequence (Q12797 315-758): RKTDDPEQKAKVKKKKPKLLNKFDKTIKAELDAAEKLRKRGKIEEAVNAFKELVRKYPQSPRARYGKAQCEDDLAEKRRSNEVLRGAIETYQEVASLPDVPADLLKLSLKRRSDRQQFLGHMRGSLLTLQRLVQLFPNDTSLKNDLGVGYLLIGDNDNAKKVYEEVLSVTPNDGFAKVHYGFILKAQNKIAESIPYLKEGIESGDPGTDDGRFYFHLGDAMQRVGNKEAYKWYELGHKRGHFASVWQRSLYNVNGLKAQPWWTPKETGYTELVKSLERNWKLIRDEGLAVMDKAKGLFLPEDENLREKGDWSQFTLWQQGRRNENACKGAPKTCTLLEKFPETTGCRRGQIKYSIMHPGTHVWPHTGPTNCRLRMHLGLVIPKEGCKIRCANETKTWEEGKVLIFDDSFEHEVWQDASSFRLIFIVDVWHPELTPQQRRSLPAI
# Test: SPE-MS AspH inhibition assay (LOPAC screen at fixed 20 μM and IC50 dose-response), hydroxylation of cyclic peptide hFX-CP101–119
# Assay type: biochemical
# [1] = plate 5 (Pfitzer), test compounds at fixed 20 μM
# [2] = plate 5 (Pfitzer), test compounds at fixed 20 μM, mean conversion DMSO 32.88
# [3] = LOPAC Plate 4, compound at 20 uM, substrate conversion
# [4] = LOPAC compound at 20uM, plate 2, conversion of substrate peptide
# [5] = LOPAC compound at 20uM, plate 2, normalised to DMSO and 2,4-PDCA controls
# [6] = AspH activity, fixed compound concentration 20 μM, initial LOPAC screen, 0.5%v/v DMSO, read-out: Inhibition at 20 µM [%]
# [7] = LOPAC compound at fixed 20 uM, plate 1, normalised to DMSO and 2,4-PDCA controls
# [8] = LOPAC compound at fixed 20 uM, substrate conversion, plate 1
# [9] = LOPAC compound at 20uM, plate 2, normalised to DMSO and 2,4-PDCA controls, read-out: Plate 2 (% inhibition)
smiles,measurement,setting,value
CCCCN(CC)c1nc(C)nc2c1c(C)cn2-c1c(C)cc(C)cc1C [CP-154526],Plate 5 (% inhibition),[1],-9.05%
same,Plate 5 (% conversion),[2],39.39%
Fc1ccc2[nH]c(CN3CCN(c4ccccn4)CC3)cc2c1 [CP-226269],% conversion,,39.74%
same,Plate 5 (% conversion),,37.75%
same,Plate 5 (% inhibition),,-4.22%
O.O.O=C(Nc1ccc2c(c1)CCN(Cc1ncn[nH]1)C2)c1ccccc1-c1ccc(C(F)(F)F)cc1 [CP-346086 dihydrate],% inhibition,"LOPAC Plate 4, compound at 20 uM",-27.35%
same,% conversion,[3],45.80%
O=C(Nc1ccc2c(c1)CCN(Cc1ncn[nH]1)C2)c1ccccc1-c1ccc(C(F)(F)F)cc1 [CP-346086],Plate 5 (% conversion),,46.02%
same,Plate 5 (% inhibition),,-28.53%
COCCOc1cc2nc[nH]c(=O)c2cc1OCCOC [CP-380736],Plate 1 (% conversion),,40.54%
same,Plate 1 (% inhibition),,-13.90%
same,Plate 5 (% conversion),,31.91%
same,Plate 5 (% inhibition),,12.94%
CC(C)(NS(=O)(=O)c1ccc(Oc2ccc(F)cc2)cc1)C(=O)NO [CP-471474],Plate 5 (% conversion),,38.13%
same,Plate 5 (% inhibition),,-5.33%
CC(C)c1ccc(CC(=O)N2CCC[C@@H](c3cccc(OC(C)(C)C(=O)O)c3)C2)cc1 [CP-775146],Plate 5 (% conversion),,34.51%
same,Plate 5 (% inhibition),,5.31%
CN(CCC(Oc1ccc(C(=O)c2nccs2)cc1)c1ccc(Cl)cc1)CC(=O)O (centres unmarked) [CP-802079],Plate 5 (% conversion),,32.57%
same,Plate 5 (% inhibition),,11.01%
"CC(C)c1c(-c2ccccc2)[nH]c2c(C#N)cnn2c1=O [CPI-455, reference compound]",IC50 [μM],"50 nM His6-AspH315–758, 1.0 μM hFX-CP101–119, 3 μM 2OG, 2 μM Fe(II), 50 mM HEPES pH 7.5, 20 °C, mean ± SD, n = 2 (2,4-PDCA n = 10)",inactive
O=C(c1ccc(Cl)cc1)N1CCN(c2ccc([N+](=O)[O-])c3ncccc23)CC1 [CPNQ],Plate 2 (% conversion),[4],35.99%
same,Plate 2 (% inhibition),[5],-0.10%
CC1(C)CCC(NC(=O)[C@@H](N)CCC(=O)O)CC1 [CR 2249],Plate 3 (% conversion),"LOPAC compound at 20uM, plate 3, conversion of substrate peptide",40.87%
O=C(c1ccc2c(c1)OCCO2)N1CCCCC1 [CX 546],Plate 2 (% conversion),[4],39.70%
same,Plate 2 (% inhibition),[5],-11.19%
"[Ca+2].[Cl-].[Cl-] [Ca(II), CaCl2, reference compound]","IC50 metal ion, AspH [μM]","50 nM AspH, 2.0 μM Fe(II), Zn(OAc)2, NiSO4, CoCl2, MnCl2, CaCl2 as metal sources, n = 2, mean ± SD",do not show any effect; also recorded: does not perturb AspH activity; also recorded: inactive
"O=C(/C=C/c1ccc(O)c(O)c1)OCCc1ccccc1 [Caffeic acid phenethyl ester, reference compound]",inhibition at 20 µM,[6],98.5%
same,Plate 1 (% inhibition),[7],98.53%
same,Plate 1 (% conversion),[8],2.78%
Cn1c(=O)c2c(ncn2C)n(C)c1=O [Caffeine],Plate 1 (% inhibition),[7],-5.72%
same,Plate 1 (% conversion),[8],37.79%
"CNc1ccc2oc(C[C@H]3O[C@@]4(CC[C@H]3C)O[C@H]([C@H](C)C(=O)c3ccc[nH]3)[C@H](C)C[C@H]4C)nc2c1C(=O)O [Calcimycin, calcimycin, reference compound]",Plate 1 (% conversion),,2.02%
same,IC50,IC50 [μM],4.19 ± 0.1 µM
same,inhibition at 20 µM,read-out: Inhibition at 20 µM [%],101%
Clc1ccc(C(c2ccc(Cl)cc2)n2cc[n+](CC(OCc3ccc(Cl)cc3Cl)c3ccc(Cl)cc3Cl)c2)cc1 (centres unmarked) [Calmidazolium chloride],Plate 1 (% conversion),,58.50%
same,Plate 1 (% inhibition),[7],-67.38%
O=c1[nH]c(=S)[nH]c(-c2ccccc2)c1Cc1c(O)ccc2ccccc12 [Cambinol],Plate 2 (% conversion),[4],25.50%
same,inhibition at 20 µM,[9],31.2%
CC1(C(=O)O)C2CCC(O2)C1(C)C(=O)O (centres unmarked) [Cantharidic Acid],Plate 1 (% conversion),,25.92%
same,Plate 1 (% inhibition),,29.65%
C[C@@]12C(=O)OC(=O)[C@]1(C)[C@H]1CC[C@@H]2O1 [Cantharidin],Plate 1 (% conversion),,17.40%
same,Plate 1 (% inhibition),,55.02%
"Oc1cc2c(cc1O)CN(C(=S)NCCc1ccc(Cl)cc1)CCC2 [Capsazepine, capsazepine, reference compound]",IC50,"50 nM His6-AspH315–758, 1.0 μM hFX-CP101–119, 3 μM 2OG, 2 μM Fe(II), 50 mM HEPES pH 7.5, 20 °C, mean ± SD, n = 2 (2,4-PDCA n = 10), read-out: IC50",3.41 ± 0.28 µM
same,inhibition at 20 µM,[6],99.7%
same,Plate 2 (% conversion),[4],2.59%
same,inhibition at 20 µM,[9],99.7%
C[C@H](CS)C(=O)N1CCC[C@H]1C(=O)O [Captopril],Plate 1 (% conversion),,35.34%
same,Plate 1 (% inhibition),,1.58%
C[N+](C)(C)CCOC(N)=O [Carbachol],Plate 1 (% inhibition),[7],-3.17%
same,Plate 1 (% conversion),[8],36.94%
NC(=O)N1c2ccccc2C=Cc2ccccc21 [Carbamazepine],Plate 1 (% inhibition),[7],0.72%
same,Plate 1 (% conversion),[8],35.63%
CCN(CC)CCOCCOC(=O)C1(c2ccccc2)CCCC1 [Carbetapentane citrate],Plate 1 (% inhibition),[7],80.85%
same,Plate 1 (% conversion),[8],8.72%
CCCCCCNC(=O)n1cc(F)c(=O)[nH]c1=O [Carmofur],% conversion,,37.69%
same,inhibition at 20 µM,"LOPAC Plate 4, compound at 20 uM, read-out: % inhibition",-3.58%
O=NN(CCCl)C(=O)NCCCl [Carmustine],Plate 1 (% conversion),,39.33%
same,Plate 1 (% inhibition),[7],-10.30%
CCN(CC)CCn1c(=O)c(Cc2ccc(OC)cc2)nc2ccccc21.Cl [Caroverine hydrochloride],% conversion,[3],34.53%
N[C@@H](C(=O)N[C@@H]1C(=O)N2C(C(=O)O)=C(Cl)CS[C@H]12)c1ccccc1 [Cefaclor],Plate 1 (% inhibition),[7],23.98%
same,Plate 1 (% conversion),[8],27.82%
Cc1nnc(SCC2=C(C(=O)O)N3C(=O)[C@@H](NC(=O)Cn4cnnn4)[C@H]3SC2)s1 [Cefazolin sodium],Plate 1 (% inhibition),[7],9.95%
same,Plate 1 (% conversion),[8],32.53%
CO[C@@]1(NC(=O)CSCC#N)C(=O)N2C(C(=O)O)=C(CSc3nnnn3C)CS[C@@H]21 [Cefmetazole sodium],Plate 1 (% inhibition),[7],-3.81%
same,Plate 1 (% conversion),[8],37.15%
CO/N=C(\C(=O)N[C@@H]1C(=O)N2C(C(=O)O)=C(COC(C)=O)CS[C@H]12)c1csc(N)n1 [Cefotaxime sodium],Plate 1 (% inhibition),[7],3.71%
same,Plate 1 (% conversion),[8],34.63%
NC(=O)c1cc[n+](CC2=C(C(=O)[O-])N3C(=O)[C@@H](NC(=O)C(c4ccccc4)S(=O)(=O)[O-])[C@H]3SC2)cc1.O.[Na+] (some centres unmarked) [Cefsulodin sodium salt hydrate],Plate 1 (% inhibition),[7],64.70%
same,Plate 1 (% conversion),[8],14.14%
CO/N=C(\C(=O)N[C@@H]1C(=O)N2C(C(=O)O)=C(CSc3nc(=O)c(=O)[nH]n3C)CS[C@H]12)c1csc(N)n1 [Ceftriaxone sodium],Plate 1 (% inhibition),[7],-8.63%
same,Plate 1 (% conversion),[8],38.77%
Cc1ccc(-c2cc(C(F)(F)F)nn2-c2ccc(S(N)(=O)=O)cc2)cc1 [Celecoxib],Plate 5 (% inhibition),[1],-13.08%
same,Plate 5 (% conversion),[2],40.77%
CN(C)CCOC(=O)COc1ccc(Cl)cc1 [Centrophenoxine hydrochloride],Plate 1 (% conversion),,36.66%
same,Plate 1 (% inhibition),,-2.35%
CC1=C(C(=O)O)N2C(=O)[C@@H](NC(=O)[C@H](N)c3ccccc3)[C@H]2SC1.O [Cephalexin hydrate],Plate 1 (% inhibition),[7],14.49%
CC(=O)OCC1=C(C(=O)O)N2C(=O)[C@@H](NC(=O)Cc3cccs3)[C@H]2SC1 [Cephalothin sodium],Plate 1 (% inhibition),[7],9.86%
same,Plate 1 (% conversion),[8],32.56%
CC1=C(C(=O)O)N2C(=O)[C@@H](NC(=O)[C@H](N)C3=CCC=CC3)[C@H]2SC1 [Cephradine],Plate 1 (% inhibition),[7],23.03%
same,Plate 1 (% conversion),[8],28.14%
O=C(O)COCCN1CCN(C(c2ccccc2)c2ccc(Cl)cc2)CC1 (centres unmarked) [Cetirizine dihydrochloride],inhibition at 20 µM,[9],-5.77%
COc1ccc2c(c[n+](C)c3c4cc5c(cc4ccc23)OCO5)c1OC [Chelerythrine chloride],Plate 1 (% conversion),,32.96%
same,Plate 1 (% inhibition),[7],8.68%
O=C(O)c1cc(O)cc(C(=O)O)n1 [Chelidamic acid],Plate 1 (% inhibition),[7],48.94%
same,Plate 1 (% conversion),[8],19.44%
Cc1ncsc1CCCl.Cl [Chlormethiazole hydrochloride],Plate 1 (% conversion),,33.94%
same,Plate 1 (% inhibition),,5.75%
CN1C(=O)CCS(=O)(=O)C1c1ccc(Cl)cc1 (centres unmarked) [Chlormezanone],Plate 2 (% conversion),,39.39%
same,inhibition at 20 µM,read-out: Plate 2 (% inhibition),-10.3%
CCN(CC)CCCC(C)Nc1ccnc2cc(Cl)ccc12 (centres unmarked) [Chloroquine diphosphate],Plate 1 (% conversion),,38.59%
same,Plate 1 (% inhibition),,-8.09%
NS(=O)(=O)c1cc2c(cc1Cl)N=CNS2(=O)=O [Chlorothiazide],Plate 1 (% inhibition),[7],-4.46%
same,Plate 1 (% conversion),[8],37.37%
CN(C)CCCN1c2ccccc2Sc2ccc(Cl)cc21 [Chlorpromazine hydrochloride],Plate 1 (% inhibition),[7],-29.45%
same,Plate 1 (% conversion),[8],45.76%
